Measured values taken from patent publication US20240217954A1, “CRYSTAL FORM IV OF ORGANIC ACID SALTS OF MELANOCORTIN RECEPTOR AGONIST COMPOUND, AND PREPARATION METHOD THEREOF” (LG CHEM, LTD., priority 2021, published 2024).
Read-outs that look alike come from different tables or passages of the source.

Test: Solubility assessment: visual, by final volume of water added until the sample is completely dissolved
Protocol: Solubility indicates the result of measurement based on the final volume of water added to a sample when it is visually confirmed that the sample is completely dissolved by adding water to the sample. The solubility of the actual sample may be higher than the measured solubility. Solubility was measured based on the final volume of water added to a sample when it was visually confirmed that the sample was completely dissolved by adding water to the sample.

[1] = in water, visual complete dissolution, actual solubility may be higher than measured

| SMILES | solubility [1] | solubility |
| --- | --- | --- |
| CC(O)C(=O)O.CC1CCC(N(C(=O)C(C)C)[C@H]2C[C@@H](C(=O)N3CCOCC3)N(C(=O)[C@@H]3CN(C(C)(C)C)C[C@H]3c3ccc(Cl)cc3)C2)CC1 (stereo partly drawn) [Example 1, N-((3S,5S)-1-((3S,4R)-1-(tert-butyl)-4-(4-chlorophenyl)pyrrolidine-3-carbonyl)-5-(morpholine-4-carbonyl)pyrrolidin-3-yl)-N-((1 s,4R)-4-methylcyclohexyl)isobutyramide lactate] | more than 24 mg/mL | – |
| CC(C)C(=O)N([C@H]1C[C@@H](C(=O)N2CCOCC2)N(C(=O)[C@@H]2CN(C(C)(C)C)C[C@H]2c2ccc(Cl)cc2)C1)[C@H]1CC[C@@H](C)CC1.O=S(=O)(O)c1ccccc1 [Example 2, N-((3S,5S)-1-((3S,4R)-1-(tert-butyl)-4-(4-chlorophenyl)pyrrolidine-3-carbonyl)-5-(morpholine-4-carbonyl)pyrrolidin-3-yl)-N-((1 s,4R)-4-methylcyclohexyl)isobutyramide benzene sulfonate] | more than 1 mg/mL | – |
| CC(C)C(=O)N([C@H]1C[C@@H](C(=O)N2CCOCC2)N(C(=O)[C@@H]2CN(C(C)(C)C)C[C@H]2c2ccc(Cl)cc2)C1)[C@H]1CC[C@@H](C)CC1.Cc1ccc(S(=O)(=O)O)cc1 [Example 3, N-((3S,5S)-1-((3S,4R)-1-(tert-butyl)-4-(4-chlorophenyl)pyrrolidine-3-carbonyl)-5-(morpholine-4-carbonyl)pyrrolidin-3-yl)-N-((1 s,4R)-4-methylcyclohexyl)isobutyramide toluene sulfonate] | – | more than 10 mg/mL |
